This passage reports Ki and EC50 results from patent US9561231B2 (AbbVie Inc., priority 2012, dated 2017).

Molecules are shown by their SMILES. pEC50, pKi: −log10 of the molar value. Read-outs that look alike come from different tables or passages of the source.

Assay [1] addresses T1, first (BD1: amino acids K57-E168) bromodomain of BRD4 (Homo sapiens, UniProt O60885).
T1 construct: His-tagged first (BD1: amino acids K57-E168)
Briefly: TR-FRET bromodomain binding assay, BRD4 BD1. The following applies: Ki calculated from IC50, probe Kd and probe concentration, read-out: TR-FRET Binding Ki: BRD4 (BDI_K57-E168). A digest of the protocol: (§1)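 Values are Ki: IC50s from TR-FRET competition with an Alexa647-labeled BET-inhibitor probe were converted using probe Kd and probe concentration. Purified His-tagged bromodomain; pH 6.0 sodium phosphate buffer.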

Assay [2] addresses T2, second (BD2: amino acids E352-E168) bromodomain of BRD4 (Homo sapiens, UniProt O60885).
T2 construct: protocol
Briefly: TR-FRET bromodomain binding assay, BRD4 BD2. Particulars: Ki calculated from IC50, probe Kd and probe concentration, read-out: TR-FRET Binding Ki: BRD4 (BDII_E352-M457). An outline of the steps:
as §1

In assay [3] the test system is breast cancer cell line MX-1. Briefly: MX-1 cell line proliferation assay (3-day). Particulars: Homo sapiens, MX1, MX-1 cells, Cell Titer Glo, read-out: Cellular proliferation: EC50. The assay is classed as cell-based. An outline of the steps: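 MX-1 cells in RPMI/10% FBS, plated 5000/well overnight, then exposed to compound at final 3 to 0.0001 μM (3-fold series) for 3 days at 37° C. Cell Titer Glo luminescence normalized to DMSO-treated cells; EC50 from sigmoidal curve fit.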
(ATP-based viability assays read luminescence as a measure of living cells.)

The mark [4] stands for this setting: TR-FRET assay protocol (A-G, compound concentration range).
[5] abbreviates: TR-FRET assay protocol (D, E or G) per compound.

By pKi is commonly meant the negative decadic logarithm of the Ki, by convention in mol/L. Turning to `CCS(=O)(=O)Nc1ccc(Oc2ccc(F)cc2F)c(-c2cn(C)c(=O)cc2OC(C)C)c1` [Example 289, N-{4-(2,4-difluorophenoxy)-3-[1-methyl-6-oxo-4-(propan-2-yloxy)-1,6-dihydropyridin-3-yl]phenyl}ethanesulfonamide], the pKi in assay [1] (setting [4]) was 8.20; in assay [2] (setting [4]), 9.19. For the same compound, in assay [3] (72 h incubation), the pEC50 was 7.11.
On to `CCS(=O)(=O)Nc1ccc(Oc2ccc(F)cc2F)c(-c2cn(C)c(=O)cc2OCC2CCOC2)c1` (stereo not drawn) [Example 291, N-{4-(2,4-difluorophenoxy)-3-[1-methyl-6-oxo-4-(tetrahydrofuran-3-ylmethoxy)-1,6-dihydropyridin-3-yl]phenyl}ethanesulfonamide], for which the figures for the pKi in assay [1] (setting [4]) and in assay [2] (setting [4]) were 7.79 and 8.20, respectively. Moreover, the pEC50 in assay [3] (72 h incubation) was 6.95.
Taken in the same sequence, the figures for `CCS(=O)(=O)Nc1ccc(Oc2ccc(F)cc2F)c(-c2cn(C)c(=O)cc2OCC2CCN(C)C2)c1` (stereo not drawn) [Example 323, N-[4-(2,4-difluorophenoxy)-3-{1-methyl-4-[(1-methylpyrrolidin-3-yl)methoxy]-6-oxo-1,6-dihydropyridin-3-yl]phenyl}ethanesulfonamide] were 6.82, 7.00 and 5.94.
Taken in the same sequence, the figures for `CCS(=O)(=O)Nc1ccc(Oc2ccc(F)cc2F)c(-c2cn(C)c(=O)cc2-c2ccc(CN3CCN(C)CC3)cc2)c1` [Example 279, N-[4-(2,4-difluorophenoxy)-3-(1-methyl-4-{4-[(4-methylpiperazin-1-yl)methyl]phenyl}-6-oxo-1,6-dihydropyridin-3-yl)phenyl]ethanesulfonamide] were 8.56, 8.89 and 7.34.
Regarding `CCCS(=O)(=O)Nc1ccc(Oc2ccccc2)c(-c2nn(C)c(=O)cc2OC)c1` [Example 24, N-[3-(4-methoxy-1-methyl-6-oxo-1,6-dihydropyridazin-3-yl)-4-phenoxyphenyl]propane-1-sulfonamide], the results for the pKi in assay [1] (setting [4]) and in assay [2] (setting [4]) were 6.49 and 6.97, respectively. Further, the pEC50 in assay [3] (72 h incubation) was 6.00.
Taken in the same sequence, the figures for `CCS(=O)(=O)Nc1ccc(Oc2ccc(F)cc2F)c(-c2cn(C)c(=O)cc2OCC2CC2)c1` [Example 287, N-(3-(4-(cyclopropylmethoxy)-1-methyl-6-oxo-1,6-dihydropyridin-3-yl)-4-(2,4-difluorophenoxy)phenyl)ethanesulfonamide] were 8.18, 8.67 and 7.22.
Taken in the same sequence, the figures for `CN1CCN(Cc2cccc(-c3cc(=O)n(C)nc3-c3ccccc3Oc3ccccc3)c2)CC1` [Example 60, 2-methyl-5-{3-[(4-methylpiperazin-1-yl)methyl]phenyl}-6-(2-phenoxyphenyl)pyridazin-3(2H)-one] were 6.77, 6.38 and under 5.52.
Taken in the same sequence, the figures for `Cn1nc(-c2ccccc2Oc2ccccc2)c(-c2ccc(CN3CCCC3)cc2)cc1=O` [Example 71, 2-methyl-6-(2-phenoxyphenyl)-5-[4-(pyrrolidin-1-ylmethyl)phenyl]pyridazin-3(2H)-one] were 7.21, 6.88 and 6.40.
`CCS(=O)(=O)Nc1ccc(Oc2ccc(F)cc2F)c(-c2cn(C)c(=O)cc2-c2cnn(Cc3ccccc3)c2)c1` [Example 390, N-{3-[4-(1-benzyl-1H-pyrazol-4-yl)-1-methyl-6-oxo-1,6-dihydropyridin-3-yl]-4-(2,4-difluorophenoxy)phenyl}ethanesulfonamide]: the negative-log Ki (pKi) was 7.44 in assay [1] (setting [5]) and 7.87 in assay [2] (setting [5]). Besides, in assay [3] (72 hours with compound), the pEC50 is 7.10.
Take `CCOc1cc(=O)n(C)cc1-c1cc(S(C)(=O)=O)ccc1NCC1CC1` [Example 340, 5-{2-[(cyclopropylmethyl)amino]-5-(methylsulfonyl)phenyl}-4-ethoxy-1-methylpyridin-2(1H)-one]: the negative-log Ki (pKi) in assay [1] (setting [4]) is 6.65; in assay [2] (setting [4]), 6.60. Also, in assay [3] (72 h incubation), the pEC50 is 6.42.
Taken in the same sequence, the figures for `COC(=O)CNc1cc(=O)n(C)nc1-c1ccccc1Oc1ccccc1` [Example 50, methyl N-[1-methyl-6-oxo-3-(2-phenoxyphenyl)-1,6-dihydropyridazin-4-yl]glycinate] were 5.68, 5.62 and 5.02.
In the case of `CC(=O)Nc1ccc(Oc2ccccc2)c(-c2ccc(=O)n(C)n2)c1` [Example 12, N-[3-(1-methyl-6-oxo-1,6-dihydropyridazin-3-yl)-4-phenoxyphenyl]acetamide], the results for the pKi in assay [1] (setting [4]) and in assay [2] (setting [4]) were 6.24 and 6.16, respectively. Besides, the pEC50 in assay [3] (72 h incubation) was 5.58.
For `CCOc1cc(=O)n(C)cc1-c1cc(S(=O)(=O)CC)ccc1Oc1ccc(C#N)cc1` [Example 378, 4-[2-(4-ethoxy-1-methyl-6-oxo-1,6-dihydropyridin-3-yl)-4-(ethylsulfonyl)phenoxy]benzonitrile], the pKi in assay [1] (setting [5]) is 6.95; in assay [2] (setting [5]), 7.50. Besides, in assay [3] (72 hours with compound), the pEC50 was 6.99.
Regarding `Cn1cc(-c2cc(NS(C)(=O)=O)ccc2Oc2ccc(F)cc2F)c(-c2ccc(N3CCOCC3)cc2)cc1=O` [Example 274, N-[4-(2,4-difluorophenoxy)-3-{1-methyl-4-[4-(morpholin-4-yl)phenyl]-6-oxo-1,6-dihydropyridin-3-yl]phenyl}methanesulfonamide], the values for the pKi in assay [1] (setting [4]) and in assay [2] (setting [4]) were 7.61 and 8.26, respectively. Moreover, the pEC50 in assay [3] (72 h incubation) is 7.11.
Taken in the same sequence, the figures for `CCS(=O)(=O)Nc1ccc(Oc2ccc(F)cc2F)c(-c2cn(C)c(=O)cc2OCCC(C)(C)O)c1` [Example 372, N-{4-(2,4-difluorophenoxy)-3-[4-(3-hydroxy-3-methylbutoxy)-1-methyl-6-oxo-1,6-dihydropyridin-3-yl]phenyl}ethanesulfonamide] were 7.47, 7.84 and 6.69.
Taken in the same sequence, the figures for `CC(=O)Nc1ccc(Oc2ccc(F)cc2F)c(-c2c[nH]c(=O)c(C)c2)c1` [Example 265, N-[4-(2,4-difluorophenoxy)-3-(5-methyl-6-oxo-1,6-dihydropyridin-3-yl)phenyl]acetamide] were 6.88, 6.76 and 5.76.
Taken in the same sequence, the figures for `CCS(=O)(=O)Nc1ccc(Oc2ccc(F)cc2F)c(-c2cn(C)c(=O)cc2OC2CCN(C(=O)OC(C)(C)C)CC2)c1` [Example 319, tert-butyl 4-[(5-{2-(2,4-difluorophenoxy)-5-[(ethylsulfonyl)amino]phenyl}-1-methyl-2-oxo-1,2-dihydropyridin-4-yl)oxy]piperidine-1-carboxylate] were 6.50, 6.98 and 6.49.
On to `COc1cc(=O)n(C)nc1-c1ccccc1Oc1ccc(Cl)cc1` [Example 37, 6-[2-(4-chlorophenoxy)phenyl]-5-methoxy-2-methylpyridazin-3(2H)-one], for which the negative logarithm of the Ki (pKi) was 5.76 in assay [1] (setting [4]) and 5.75 in assay [2] (setting [4]). Further, in assay [3] (72 h incubation), the pEC50 was 5.00.
Taken in the same sequence, the figures for `COC(=O)CS(=O)(=O)Nc1ccc(Oc2ccccc2)c(-c2ccc(=O)n(C)c2)c1` [Example 225, methyl {[3-(1-methyl-6-oxo-1,6-dihydropyridin-3-yl)-4-phenoxyphenyl]sulfamoyl}acetate] were 6.82, 6.97 and 5.00.
Taken in the same sequence, the figures for `Cn1cc(-c2cc(NS(C)(=O)=O)ccc2Oc2cccc(C#N)c2)ccc1=O` [Example 245, N-[4-(3-cyanophenoxy)-3-(1-methyl-6-oxo-1,6-dihydropyridin-3-yl)phenyl]methanesulfonamide] were 7.10, 6.36 and 6.00.
Taken in the same sequence, the figures for `Cc1cc(-c2cc(NS(C)(=O)=O)ccc2OC2CCC(F)(F)CC2)c[nH]c1=O` [Example 266, N-{4-[(4,4-difluorocyclohexyl)oxy]-3-(5-methyl-6-oxo-1,6-dihydropyridin-3-yl)phenyl}methanesulfonamide] were 7.23, 6.47 and under 5.52.
Consider `CC(C)N1CCN(c2ccc(-c3cc(=O)n(C)nc3-c3ccccc3Oc3ccccc3)cc2)CC1` [Example 180, 2-methyl-6-(2-phenoxyphenyl)-5-{4-[4-(propan-2-yl)piperazin-1-yl]phenyl}pyridazin-3(2H)-one], for which the pKi in assay [1] (setting [4]) is 7.35; in assay [2] (setting [4]), 7.17. Moreover, the pEC50 in assay [3] (72 h incubation) was 6.43.
Take `COc1cc(=O)n(C)nc1-c1ccccc1Oc1ccc(F)cc1` [Example 33, 6-[2-(4-fluorophenoxy)phenyl]-5-methoxy-2-methylpyridazin-3(2H)-one]: the negative logarithm of the Ki (pKi) was 5.52 in assay [1] (setting [4]) and 5.64 in assay [2] (setting [4]). Also, in assay [3] (72 h incubation), the pEC50 is 5.39.
